{
  "source": "paper PMC8808171",
  "about": "“Nonselective TRPC channel inhibition and suppression of aminoglycoside-induced premature termination codon readthrough by the small molecule AC1903” (The Journal of Biological Chemistry, 2022)",
  "key": {"[1]": {"tested_on": "DMS-114 cells (TP53 R213X)", "test": "G418-induced PTC readthrough (full-length p53, capillary electrophoresis Western) in DMS-114 cells", "assay_type": "cell-based, human", "settings": "for reduction of PTC readthrough compared with G418 alone: then 400 μg/ml G418 (Fig. 2A)", "from_the_text": "(§1) Variation in PTC readthrough response has been reported among individuals or cell lines with different nonsense mutations. Although this in part highlights the importance of the stop codon and its surrounding sequence as well as the physical location of the nonsense mutation in the mRNA sequence, understanding the contribution of other underlying genetic variations becomes more complicated. To rule out the effect of the sequence and position of nonsense mutations on response variation to potential PTC readthrough modulators, we studied two cancer cell lines, DMS-114 and TC-71, with identical homozygous nonsense mutation R213X in their TP53 gene. […] To find out whether the reduced response to G418 in TC-71 cells was associated with lower intracellular levels of G418, we measured concentrations of G418 in both cell lines at 0, 8 and 24 h post exposure to G418 (100 μg/ml).\nFigure 1 Effect of TRPC inhibitors on G418 induced PTC readthrough. A, DMS-114 and TC-71 cell lines with homozygous TP53 nonsense mutation (R213X) were exposed to indicated concentrations of G418 for 24 h and p53 levels (full-length, FL-p53; truncated, TR-p53) were measured. B, 100 μg/ml G418 was added to DMS-114 and TC-71 cells and its total intracellular levels were measured at indicated time points (n = 5; data normalized to the highest response in each experiment; bars represent mean ± SD). C, DMS-114 cells were preincubated with indicated concentrations of TRPC inhibitors GFB-8438 (GFB), SAR7334 (SAR), SKF96365 (SKF), 2-APB, or AC1903 for 3 h followed by exposure to 400 μg/ml G418 for another 3 h. At 24 h cell lysates were prepared and p53 levels were measured. In panels A and C, protein levels were measured by automated capillary electrophoresis Western analysis (using vinculin and GAPDH as loading controls). Samples of cell lysates containing equal amounts of total protein were loaded in all capillaries and FL-p53 levels were expressed relative to the amount of FL-p53 in untreated cells. ∗ indicates statistically significant difference between samples according to two-way ANOVA (p < 0.05). PTC, premature termination codon; TRPC, transient receptor potential canonical.\nTo further investigate AC1903 as a suppressor of G418-induced PTC readthrough, we exposed DMS-114 and TC-71 cells to various concentrations of AC1903 for 3 h prior to exposure to 400 μg/ml G418 for another 3 h, followed by media replacement and incubation for another 18 h.\n(§2) Figure 2 Effect of AC1903 on PTC readthrough and G418 trafficking.A and B, DMS-114 (A) or TC-71 (B) cells were pretreated with indicated concentrations of AC1903 for 3 h followed by exposure to 400 μg/ml G418. After 3 h medium was replenished and at 24 h cell lysates were prepared and p53 levels were measured. C and E, DMS-114 (C) or JEB01 (E) cells were either left untreated or pretreated with 150 μM AC1903 for 3 h followed by exposure to indicated concentrations of G418 for another 3 h. At 24 h cell lysates were prepared and p53 (C) or Collagen XVII (E) levels were measured. In panels A–C, protein levels were measured by automated capillary electrophoresis Western analysis (using vinculin as loading control). In panel E, protein levels were measured by Western blot (using beta-actin as loading control). Samples of cell lysates containing equal amounts of total protein were loaded in all capillaries and FL-p53 or Collagen XVII levels were expressed relative to their respective amounts in untreated cells. D, total intracellular levels of G418 were measured in the same lysates as in (C) (n = 5; data normalized to the highest response in each experiment; bars represent mean ± SD). F, total intracellular levels of G418 were measured in the same lysates as in (E) (n = 2; data normalized to the highest response in each experiment; bars represent mean ± SD). ∗ indicates statistically significant difference between samples according to one-way ANOVA (p < 0.05). PTC, premature termination codon. […]"}, "[2]": {"tested_on": "TC-71 cells (TP53 R213X)", "test": "G418-induced PTC readthrough (full-length p53, capillary electrophoresis Western) in TC-71 cells", "assay_type": "cell-based", "settings": "without G418", "from_the_text": "as §1\nFigure 1 Effect of TRPC inhibitors on G418 induced PTC readthrough. A, DMS-114 and TC-71 cell lines with homozygous TP53 nonsense mutation (R213X) were exposed to indicated concentrations of G418 for 24 h and p53 levels (full-length, FL-p53; truncated, TR-p53) were measured. B, 100 μg/ml G418 was added to DMS-114 and TC-71 cells and its total intracellular levels were measured at indicated time points (n = 5; data normalized to the highest response in each experiment; bars represent mean ± SD). […]"}, "[3]": {"tested_on": "DMS-114 cells", "test": "Measurement of intracellular G418 (gentamicin ELISA) in DMS-114 cells", "assay_type": "cell-based, human", "settings": "150 μM AC1903 (Fig. 2D)", "experimental": "as §2, with “Samples of cell lysates containing equal amounts of total protein were loaded in all capillaries and FL-p53 or Collagen XVII levels were expressed relative to their respective amounts in untreated cells.” left out, “0.05).” for “0.05). PTC, premature termination codon.”"}},
  "data": [
    {"smiles": "c1ccc(Cn2c(NCc3ccco3)nc3ccccc32)cc1", "note": "[AC1903]", "values": [
      {"measurement": "effect on G418-induced PTC readthrough", "setting": "[1]; 150 μM AC1903 3 h, then 400 μg/ml G418 (Fig. S12)", "value": "strongly reduced"},
      {"measurement": "reduction of PTC readthrough compared with G418 alone", "setting": "[1]; AC1903 50 μM 3 h", "value": 20, "unit": "%"},
      {"measurement": "suppression of G418-induced PTC readthrough", "setting": "[1]; AC1903 50 μM, 400 μg/ml G418 (Fig. 1C)", "value": "~27", "unit": "%"},
      {"measurement": "reduction of PTC readthrough compared with G418 alone", "setting": "[1]; AC1903 150 μM 3 h", "value": 74, "unit": "%"},
      {"measurement": "decrease in full-length p53", "setting": "[1]; pretreatment 150 μM AC1903, increasing concentrations of G418 (Fig. 2C)", "value": "~70", "unit": "%"},
      {"measurement": "effect on PTC readthrough of AC1903 alone", "setting": "[1]; without G418", "value": "did not affect PTC readthrough"},
      {"measurement": "effect on PTC readthrough of AC1903 alone", "setting": "[2]", "value": "did not affect PTC readthrough"},
      {"measurement": "intracellular G418 levels in the presence of AC1903", "setting": "[3]", "value": "significantly decreased"}
    ]}
  ]
}
